Reference: patent publication US11401278B2, “Macrocyclic indole derivatives” (The Broad Institute, Inc., priority 2017, dated 2022)
“And” between values parts separate entries of the source, which are not always exact repeats. Equal entries are not always repeated. Structures can show the parent of a compound that is named as a salt. Where two headings read alike, the source gives them in different places.

Columns and labels:
HMC-1-8 = experiment: Antiproliferation assay (Assay 7), HMC-1-8; type: cell-based; details: CellTiter-Glo, several values per example, read-out: Antiproli HMC-1-8 [M] IC50
How it was run: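 Proliferation over 72 h at 37° C was assessed by luminescent cell viability reagent, referenced to a day 0 plate.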

BCL-XL = BCL-XL (Homo sapiens (Human), UniProt Q07817); experiment: Protein-protein interaction assay BCL-XL/Bad BH3 peptide (BCL-XL assay, TR-FRET); type: binding; details: His-BCL-XL / Bad BH3 peptide, median
How it was run: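 His-tagged human BCL-XL (aa 1-212, 1 nM final) was preincubated 10 min at 22 °C with compound (11 concentrations, 0.1 nM–20 μM), then biotinylated Bad BH3 peptide (1 nM) and TR-FRET reagents were added. Incubation: 1 h at 22 °C, then overnight at 4 °C, pH 7 Tris buffer. IC50 from 4-parameter fit of 665/620 ratio.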

Sequence of BCL-XL (Q07817 other isoform, or with tags, fused parts or gaps): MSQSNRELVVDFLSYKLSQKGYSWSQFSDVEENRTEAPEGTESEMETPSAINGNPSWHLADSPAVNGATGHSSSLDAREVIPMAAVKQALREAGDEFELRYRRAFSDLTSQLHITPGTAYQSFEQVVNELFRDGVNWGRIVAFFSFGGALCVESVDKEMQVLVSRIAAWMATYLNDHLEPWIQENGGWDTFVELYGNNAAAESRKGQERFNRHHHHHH

Row | IC50 (BCL-XL) [µM] | SMILES | IC50 (HMC-1-8; 72 hours) | IC50 (HMC-1-8; 72 h) [M]
1 | 18 | Cc1c2c(nn1C)C(CCN1CCOCC1)N(C)S(=O)(=O)CCCn1c(C(=O)O)c(CCCOc3cccc4ccccc34)c3cccc-2c31 (single isomer, unassigned; enantiomer 1) [Example 45, 2,3,14-trimethyl-15-[2-(morpholin-4-yl)ethyl]-7-{3-[(naphthalen-1-yl)oxy]propyl}-13,13-dioxo-10,11,12,13,14,15-hexahydro-2H-13lambda^6-pyrazolo[3′,4′:4,5][1,2,8]thiadiazacycloundecino[6,7,8-hi]indole-8-carboxylic acid N-ethylethanamine Salt (Enantiomer 1)] | > 3.3e-05 M | –
2 | > 20 | Cc1c2c(nn1C)C(CCN1CCOCC1)N(C)S(=O)(=O)CCCn1c(C(=O)O)c(CCCOc3cccc4ccccc34)c3cccc-2c31 (racemic) [Example 44, (rac)-2,3,14-trimethyl-15-[2-(rac)-(morpholin-4-yl)ethyl]-7-[3-(1-naphthyloxy)propyl]-11,12,14,15-tetrahydro-2H,10H-pyrazolo[3′,4′:4,5][1,2,8]thiadiazacycloundecino[6,7,8-hi]indole-8-carboxylic acid 13,13-dioxide (Mixture of Stereoisomers)] | – | 1.2e-05
3 | > 20 | CCc1c2c(nn1C)C(CCC1CCOCC1)N(C)S(=O)(=O)CCCn1c(C(=O)O)c(CCCOc3cccc4cc(F)ccc34)c3ccc(Cl)c-2c31 (racemic) [Example 60, (rac)-4-chloro-3-ethyl-7-{3-[(6-fluoro-1-naphthyl)oxy]propyl}-2,14-dimethyl-15-[2-(tetrahydro-2H-pyran-4-yl)ethyl]-11,12,14,15-tetrahydro-2H,10H-pyrazolo[3′,4′:4,5][1,2,8]thiadiazacycloundecino[6,7,8-hi]indole-8-carboxylic acid 13,13-dioxide (Racemate 1)] | 1.9e-07 M | –
4 | – | CCc1c2c(nn1C)CN(C1CC1)S(=O)(=O)CCCn1c(C(=O)O)c(CCCOc3cccc4cc(F)ccc34)c3ccc(Cl)c-2c31 (single isomer, unassigned; enantiomer 1) [Example 54, (−)-4-chloro-14-cyclopropyl-3-ethyl-7-{3-[(6-fluoronaphthalen-1-yl)oxy]propyl}-2-methyl-13,13-dioxo-10,11,12,13,14,15-hexahydro-2H-13lambda^6-pyrazolo[3′,4′:4,5][1,2,8]thiadiazacycloundecino[6,7,8-hi]indole-8-carboxylic acid N-ethylethanamine Salt (Enantiomer 1)] | 2.2e-06 M and 2.5e-06 M | –
5 | > 20 | Cc1c2c(nn1C)C(CCN1CCOCC1)N(C)S(=O)(=O)CCCn1c(C(=O)O)c(CCCOc3cccc4cc(F)ccc34)c3ccc(Cl)c-2c31 (single isomer, unassigned; enantiomer 1) [Example 66, 4-chloro-7-{3-[(6-fluoronaphthalen-1-yl)oxy]propyl}-2,3,14-trimethyl-15-[2-(morpholin-4-yl)ethyl]-13,13-dioxo-10,11,12,13,14,15-hexahydro-2H-13lambda^6-pyrazolo[3′,4′:4,5][1,2,8]thiadiazacycloundecino[6,7,8-hi]indole-8-carboxylic acid (Enantiomer 1)] | > 3.3e-05 M | –
6 | – | CCc1c2c(nn1C)C(CCN1CCOCC1)N(C)S(=O)(=O)CCCn1c(C(=O)O)c(CCCOc3cccc4cc(F)ccc34)c3ccc(Cl)c-2c31 (racemic) [Example 73, (rac)-(4-chloro-3-ethyl-7-{3-[(6-fluoronaphthalen-1-yl)oxy]propyl}-2,14-dimethyl-15-[2-(morpholin-4-yl)ethyl]-13,13-dioxo-10,11,12,13,14,15-hexahydro-2H-13lambda^6-pyrazolo[3′,4′:4,5][1,2,8]thiadiazacycloundecino[6,7,8-hi]indole-8-carboxylic acid (Racemate 1)] | 1e-06 M | –
7 | > 20 | Cc1c2c(nn1C)CN(C)S(=O)(=O)CCCn1c(C(=O)O)c(CCCOc3cccc4cc(F)ccc34)c3ccc(F)c-2c31 (single isomer, unassigned; enantiomer 2) [Example 39, (+)-4-fluoro-7-{3-[(6-fluoronaphthalen-1-yl)oxy]propyl}-2,3,14-trimethyl-13,13-dioxo-10,11,12,13,14,15-hexahydro-2H-13lambda^6-pyrazolo[3′,4′:4,5][1,2,8]thiadiazacycloundecino-[6,7,8-hi]indole-8-carboxylic acid (Enantiomer 2)] | 3.3e-06 M and 5.1e-06 M | –
8 | > 20 | Cc1c2c(nn1C)C(CCN1CCOCC1)N(C)S(=O)(=O)CCCn1c(C(=O)O)c(CCCOc3cccc4cc(F)ccc34)c3ccc(Cl)c-2c31 (racemic) [Example 65, (rac)-4-chloro-7-{3-[(6-fluoronaphthalen-1-yl)oxy]propyl}-2,3,14-trimethyl-15-(rac)-[2-(morpholin-4-yl)ethyl]-13,13-dioxo-10,11,12,13,14,15-hexahydro-2H-13lambda^6-pyrazolo[3′,4′:4,5][1,2,8]thiadiazacycloundecino[6,7,8-hi]indole-8-carboxylic acid (Mixture of Stereoisomers)] | – | 1.5e-06
9 | 18 | CCc1c2c(nn1C)CN(C)S(=O)(=O)CCCn1c(C(=O)O)c(CCCOc3cccc4cc(F)ccc34)c3ccc(Cl)c-2c31 (single isomer, unassigned; enantiomer 2) [Example 37, (−)-4-chloro-3-ethyl-7-{3-[(6-fluoronaphthalen-1-yl)oxy]propyl}-2,14-dimethyl-13,13-dioxo-10,11,12,13,14,15-hexahydro-2H-13lambda^6-pyrazolo[3′,4′:4,5][1,2,8]thiadiazacycloundecino-[6,7,8-hi]indole-8-carboxylic acid (Enantiomer 2)] | 1.9e-05 M | –
10 | 16 | CCc1c2c(nn1C)C(CCC1CCOCC1)N(C)S(=O)(=O)CCCn1c(C(=O)O)c(CCCOc3cccc4cc(F)ccc34)c3ccc(Cl)c-2c31 (racemic) [Example 59, (rac)-4-chloro-3-ethyl-7-{3-[(6-fluoro-1-naphthyl)oxy]propyl}-2,14-dimethyl-15-[2-(tetrahydro-2H-pyran-4-yl)ethyl]-11,12,14,15-tetrahydro-2H,10H-pyrazolo[3′,4′:4,5][1,2,8]thiadiazacycloundecino[6,7,8-hi]indole-8-carboxylic acid 13,13-dioxide (Racemate 2)] | 6e-07 M | –
11 | > 20 | Cc1c2c(nn1C)CNS(=O)(=O)CCCn1c(C(=O)O)c(CCCOc3cccc4cc(F)ccc34)c3ccc(Cl)c-2c31 (racemic) [Example 50, (rac)-4-chloro-7-{3-[(6-fluoro-1-naphthyl)oxy]propyl}-2,3-dimethyl-11,12,14,15-tetrahydro-2H,10H-pyrazolo[3′,4′:4,5][1,2,8]thiadiazacycloundecino[6,7,8-hi]indole-8-carboxylic acid 13,13-dioxide] | – | 3e-05
12 | 16 | CCc1c2c(nn1C)CN(C1CC1)S(=O)(=O)CCCn1c(C(=O)O)c(CCCOc3cccc4cc(F)ccc34)c3ccc(Cl)c-2c31 (racemic) [Example 53, (rac)-4-chloro-14-cyclopropyl-3-ethyl-7-{3-[(6-fluoro-1-naphthyl)oxy]propyl}-2-methyl-11,12,14,15-tetrahydro-2H,10H-pyrazolo[3′,4′:4,5][1,2,8]thiadiazacycloundecino[6,7,8-hi]indole-8-carboxylic acid 13,13-dioxide] | 5e-06 M and 6.4e-06 M and 7.7e-06 M | –
13 | 18 | CCc1c2c(nn1C)C(CCC1CCOCC1)N(C)S(=O)(=O)CCCn1c(C(=O)O)c(CCCOc3cccc4cc(F)ccc34)c3ccc(Cl)c-2c31 (single isomer, unassigned; enantiomer 2) [Example 62, (−)-4-chloro-3-ethyl-7-{3-[(6-fluoronaphthalen-1-yl)oxy]propyl}-2,14-dimethyl-15-[2-(oxan-4-yl)ethyl]-13,13-dioxo-10,11,12,13,14,15-hexahydro-2H-13lambda^6-pyrazolo[3′,4′:4,5][1,2,8]thiadiazacycloundecino[6,7,8-hi]indole-8-carboxylic acid (Enantiomer 2)] | 2.1e-05 M | –
14 | – | CCc1c2c(nn1C)CN(CC)S(=O)(=O)CCCn1c(C(=O)O)c(CCCOc3cccc4cc(F)ccc34)c3ccc(Cl)c-2c31 (single isomer, unassigned; enantiomer 1) [Example 57, (+)-4-chloro-3,14-diethyl-7-{3-[(6-fluoronaphthalen-1-yl)oxy]propyl}-2-methyl-13,13-dioxo-10,11,12,13,14,15-hexahydro-2H-13lambda^6-pyrazolo[3′,4′:4,5][1,2,8]thiadiazacycloundecino[6,7,8-hi]indole-8-carboxylic acid N-ethylethanamine Salt (Enantiomer 1)] | 9.1e-07 M and 1.3e-06 M | –

Row | SMILES | IC50 (BCL-XL) [µM] | IC50 (HMC-1-8; 72 hours) | IC50 (HMC-1-8; 72 h) [M]
15 | Cc1c2c(nn1C)CN(C1CC1)S(=O)(=O)CCCn1c(C(=O)O)c(CCCOc3cccc4cc(F)ccc34)c3ccc(Cl)c-2c31 (racemic) [Example 41, (rac)-4-chloro-14-cyclopropyl-7-{3-[(6-fluoro-1-naphthyl)oxy]propyl}-2,3-dimethyl-11,12,14,15-tetrahydro-2H,10H-pyrazolo[3′,4′:4,5][1,2,8]thiadiazacycloundecino[6,7,8-hi]indole-8-carboxylic acid 13,13-dioxide] | 19 | 3.9e-06 M | –
16 | Cc1c2c(nn1C)CN(C1CC1)S(=O)(=O)CCCn1c(C(=O)O)c(CCCOc3cccc4ccccc34)c3ccc(Cl)c-2c31 [Example 40, (rac)-4-chloro-14-cyclopropyl-2,3-dimethyl-7-[3-(1-naphthyloxy)propyl]-11,12,14,15-tetrahydro-2H,10H-pyrazolo[3′,4′:4,5][1,2,8]thiadiazacycloundecino[6,7,8-hi]indole-8-carboxylic acid 13,13-dioxide] | 19 | 7.2e-06 M | –
